What all share (test): Kinase panel profiling at 1 µmol/L (mobility shift assay, Carna)
Holding throughout (format): biochemical
Settings in all cases: 1 µmol/L of BTK inhibitor

The target in one assay is T1, PKCβ2 (Homo sapiens, UniProt P05771).
T1 construct: purchased Carna Biosciences

In the next assay the target is T2, NEK4 (Homo sapiens, UniProt P51957).
T2 construct: purchased Carna Biosciences

A further assay deals with T3, FES (Homo sapiens, UniProt P07332).
T3 construct: purchased Carna Biosciences

In the next assay the target is T4, TRKB (Homo sapiens, UniProt Q16620).
T4 construct: purchased Carna Biosciences

The target in the next assay is T5, p70S6Kβ (Homo sapiens, UniProt Q9UBS0).
T5 construct: purchased Carna Biosciences

Another assay deals with T6, BRSK1 (Homo sapiens, UniProt Q8TDC3).
T6 construct: purchased Carna Biosciences
T6 sequence (Q8TDC3 1-778): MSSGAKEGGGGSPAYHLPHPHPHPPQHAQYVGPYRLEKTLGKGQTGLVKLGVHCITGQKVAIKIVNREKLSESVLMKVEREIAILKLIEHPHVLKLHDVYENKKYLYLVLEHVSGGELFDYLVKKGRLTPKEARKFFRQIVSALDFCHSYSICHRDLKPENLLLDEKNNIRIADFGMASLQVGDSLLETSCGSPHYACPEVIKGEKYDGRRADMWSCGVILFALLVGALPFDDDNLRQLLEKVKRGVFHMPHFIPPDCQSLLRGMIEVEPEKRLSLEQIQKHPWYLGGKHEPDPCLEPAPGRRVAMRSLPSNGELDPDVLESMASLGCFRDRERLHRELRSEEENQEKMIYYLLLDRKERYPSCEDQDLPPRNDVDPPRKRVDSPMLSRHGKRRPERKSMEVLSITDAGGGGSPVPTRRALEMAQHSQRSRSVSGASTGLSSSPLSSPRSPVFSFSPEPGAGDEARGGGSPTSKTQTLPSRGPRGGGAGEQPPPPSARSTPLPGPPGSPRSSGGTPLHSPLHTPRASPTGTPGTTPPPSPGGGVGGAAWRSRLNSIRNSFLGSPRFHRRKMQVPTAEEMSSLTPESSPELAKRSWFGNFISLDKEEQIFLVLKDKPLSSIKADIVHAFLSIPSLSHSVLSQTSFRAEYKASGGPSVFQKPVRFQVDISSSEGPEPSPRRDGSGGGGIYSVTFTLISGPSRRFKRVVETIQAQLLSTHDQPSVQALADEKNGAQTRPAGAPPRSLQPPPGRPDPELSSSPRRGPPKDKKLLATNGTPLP

Another assay addresses T7, NEK9 (Homo sapiens, UniProt Q8TD19).
T7 construct: purchased Carna Biosciences
T7 sequence (Q8TD19 1-979): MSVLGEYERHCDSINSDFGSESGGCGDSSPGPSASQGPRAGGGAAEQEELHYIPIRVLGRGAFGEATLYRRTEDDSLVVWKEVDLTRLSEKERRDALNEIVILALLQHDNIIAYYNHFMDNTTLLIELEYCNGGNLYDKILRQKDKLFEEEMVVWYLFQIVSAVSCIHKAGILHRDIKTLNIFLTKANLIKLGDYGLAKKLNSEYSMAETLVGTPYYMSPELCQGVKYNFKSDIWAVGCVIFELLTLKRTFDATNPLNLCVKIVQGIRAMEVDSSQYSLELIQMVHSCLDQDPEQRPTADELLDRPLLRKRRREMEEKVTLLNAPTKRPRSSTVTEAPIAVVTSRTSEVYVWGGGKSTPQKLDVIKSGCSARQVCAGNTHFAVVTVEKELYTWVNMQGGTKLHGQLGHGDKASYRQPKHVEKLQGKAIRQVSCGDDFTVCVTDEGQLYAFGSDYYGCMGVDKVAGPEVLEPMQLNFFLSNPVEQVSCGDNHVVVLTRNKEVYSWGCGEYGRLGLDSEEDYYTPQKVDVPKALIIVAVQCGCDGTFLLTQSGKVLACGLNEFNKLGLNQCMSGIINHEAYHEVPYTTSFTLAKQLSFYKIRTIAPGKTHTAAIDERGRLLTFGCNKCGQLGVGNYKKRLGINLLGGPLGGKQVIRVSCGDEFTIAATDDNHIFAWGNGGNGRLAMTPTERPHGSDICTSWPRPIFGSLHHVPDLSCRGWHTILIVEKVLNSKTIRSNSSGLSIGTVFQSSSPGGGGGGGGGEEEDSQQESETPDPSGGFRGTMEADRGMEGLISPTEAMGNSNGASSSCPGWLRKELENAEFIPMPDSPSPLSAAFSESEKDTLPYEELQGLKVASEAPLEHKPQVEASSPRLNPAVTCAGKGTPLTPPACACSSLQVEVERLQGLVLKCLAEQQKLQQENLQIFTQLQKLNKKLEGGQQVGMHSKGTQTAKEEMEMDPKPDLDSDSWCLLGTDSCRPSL

A further assay has as its target T8, DAPK1 (Homo sapiens, UniProt P53355).
T8 construct: purchased Carna Biosciences

For a further assay, the target named is T9, CaMK1δ (Homo sapiens, UniProt Q8IU85).
T9 construct: purchased Carna Biosciences

For a further assay, the target named is T10, ALK (Homo sapiens, UniProt Q9UM73).
T10 construct: purchased Carna Biosciences

The target of the next assay is T11, PKR (Homo sapiens, UniProt P19525).
T11 construct: purchased Carna Biosciences

For another assay, the target named is T12, AKT1 (Homo sapiens, UniProt P31749).
T12 construct: purchased Carna Biosciences

The target in a further assay is T13, RSK4 (Homo sapiens, UniProt Q9UK32).
T13 construct: purchased Carna Biosciences

Another assay deals with T14, TRKA (Homo sapiens, UniProt P04629).
T14 construct: purchased Carna Biosciences

These results are taken from publication PMC12586182 (Frontiers in Oncology, 2025).

T12 sequence (P31749 whole entry): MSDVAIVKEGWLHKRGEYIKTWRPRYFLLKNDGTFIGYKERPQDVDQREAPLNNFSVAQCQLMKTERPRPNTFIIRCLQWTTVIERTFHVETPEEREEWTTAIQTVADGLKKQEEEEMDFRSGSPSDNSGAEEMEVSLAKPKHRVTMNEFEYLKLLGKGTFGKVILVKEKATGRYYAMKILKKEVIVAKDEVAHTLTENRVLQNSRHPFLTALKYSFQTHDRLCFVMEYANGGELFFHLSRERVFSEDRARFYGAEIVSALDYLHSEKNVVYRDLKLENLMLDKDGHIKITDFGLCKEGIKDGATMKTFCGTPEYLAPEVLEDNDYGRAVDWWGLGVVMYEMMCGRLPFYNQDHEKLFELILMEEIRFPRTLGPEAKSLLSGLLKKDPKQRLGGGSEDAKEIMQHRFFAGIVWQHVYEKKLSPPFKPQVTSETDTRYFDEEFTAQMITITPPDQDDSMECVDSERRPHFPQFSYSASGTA
T5 sequence (Q9UBS0 whole entry): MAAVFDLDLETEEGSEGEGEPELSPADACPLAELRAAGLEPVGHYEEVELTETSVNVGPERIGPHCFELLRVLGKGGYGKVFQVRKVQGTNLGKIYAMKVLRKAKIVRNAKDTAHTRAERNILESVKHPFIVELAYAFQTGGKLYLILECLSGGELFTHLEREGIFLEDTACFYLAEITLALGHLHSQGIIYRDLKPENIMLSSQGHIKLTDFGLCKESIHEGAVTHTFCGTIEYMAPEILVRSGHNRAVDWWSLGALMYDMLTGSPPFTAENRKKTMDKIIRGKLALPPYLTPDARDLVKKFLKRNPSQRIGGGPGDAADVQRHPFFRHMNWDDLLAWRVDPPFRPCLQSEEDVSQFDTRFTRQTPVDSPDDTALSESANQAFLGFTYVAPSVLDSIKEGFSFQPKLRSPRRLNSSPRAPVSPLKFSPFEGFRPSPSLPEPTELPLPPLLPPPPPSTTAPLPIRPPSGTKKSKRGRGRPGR
T10 sequence (Q9UM73 19-1620): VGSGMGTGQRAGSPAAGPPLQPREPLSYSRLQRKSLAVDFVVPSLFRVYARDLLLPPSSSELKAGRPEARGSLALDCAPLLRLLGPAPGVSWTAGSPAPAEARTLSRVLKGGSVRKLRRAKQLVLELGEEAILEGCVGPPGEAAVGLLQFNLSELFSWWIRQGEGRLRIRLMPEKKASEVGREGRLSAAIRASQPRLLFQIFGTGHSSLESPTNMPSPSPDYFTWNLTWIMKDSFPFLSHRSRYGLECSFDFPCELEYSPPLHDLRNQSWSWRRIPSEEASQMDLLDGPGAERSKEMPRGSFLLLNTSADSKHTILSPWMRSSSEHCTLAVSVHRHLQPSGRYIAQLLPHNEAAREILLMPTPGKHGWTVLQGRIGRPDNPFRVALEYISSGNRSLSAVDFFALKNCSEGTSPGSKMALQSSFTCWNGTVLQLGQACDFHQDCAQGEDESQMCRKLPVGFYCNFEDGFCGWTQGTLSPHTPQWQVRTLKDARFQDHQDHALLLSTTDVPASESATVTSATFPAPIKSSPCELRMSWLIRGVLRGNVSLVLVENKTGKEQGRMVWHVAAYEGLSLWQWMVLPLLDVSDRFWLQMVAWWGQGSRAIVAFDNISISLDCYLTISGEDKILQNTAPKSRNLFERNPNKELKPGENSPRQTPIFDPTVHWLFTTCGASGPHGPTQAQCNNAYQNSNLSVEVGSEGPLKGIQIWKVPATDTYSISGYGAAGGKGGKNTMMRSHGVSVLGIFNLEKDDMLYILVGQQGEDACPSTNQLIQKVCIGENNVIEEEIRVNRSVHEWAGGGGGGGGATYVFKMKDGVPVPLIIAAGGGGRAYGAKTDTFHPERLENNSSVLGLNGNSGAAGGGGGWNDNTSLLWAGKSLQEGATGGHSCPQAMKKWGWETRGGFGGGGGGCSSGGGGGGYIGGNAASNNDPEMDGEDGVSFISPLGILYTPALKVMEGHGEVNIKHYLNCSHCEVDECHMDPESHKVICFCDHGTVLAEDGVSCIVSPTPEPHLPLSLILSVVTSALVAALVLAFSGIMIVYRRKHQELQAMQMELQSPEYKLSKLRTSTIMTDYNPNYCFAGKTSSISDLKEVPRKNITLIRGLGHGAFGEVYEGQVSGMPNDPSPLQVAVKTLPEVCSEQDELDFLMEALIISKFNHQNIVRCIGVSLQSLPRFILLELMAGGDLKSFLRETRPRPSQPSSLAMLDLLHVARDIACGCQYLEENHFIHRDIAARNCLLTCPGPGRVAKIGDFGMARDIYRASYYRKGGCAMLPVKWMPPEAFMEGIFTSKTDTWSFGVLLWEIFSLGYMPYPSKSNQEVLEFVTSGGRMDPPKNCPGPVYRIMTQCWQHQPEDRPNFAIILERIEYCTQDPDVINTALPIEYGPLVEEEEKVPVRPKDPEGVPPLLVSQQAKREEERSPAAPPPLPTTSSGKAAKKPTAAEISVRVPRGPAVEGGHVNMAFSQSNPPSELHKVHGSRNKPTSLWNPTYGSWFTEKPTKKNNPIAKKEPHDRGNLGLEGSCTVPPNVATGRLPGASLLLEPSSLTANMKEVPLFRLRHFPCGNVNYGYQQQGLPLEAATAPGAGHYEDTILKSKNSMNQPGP
T14 sequence (P04629 33-796): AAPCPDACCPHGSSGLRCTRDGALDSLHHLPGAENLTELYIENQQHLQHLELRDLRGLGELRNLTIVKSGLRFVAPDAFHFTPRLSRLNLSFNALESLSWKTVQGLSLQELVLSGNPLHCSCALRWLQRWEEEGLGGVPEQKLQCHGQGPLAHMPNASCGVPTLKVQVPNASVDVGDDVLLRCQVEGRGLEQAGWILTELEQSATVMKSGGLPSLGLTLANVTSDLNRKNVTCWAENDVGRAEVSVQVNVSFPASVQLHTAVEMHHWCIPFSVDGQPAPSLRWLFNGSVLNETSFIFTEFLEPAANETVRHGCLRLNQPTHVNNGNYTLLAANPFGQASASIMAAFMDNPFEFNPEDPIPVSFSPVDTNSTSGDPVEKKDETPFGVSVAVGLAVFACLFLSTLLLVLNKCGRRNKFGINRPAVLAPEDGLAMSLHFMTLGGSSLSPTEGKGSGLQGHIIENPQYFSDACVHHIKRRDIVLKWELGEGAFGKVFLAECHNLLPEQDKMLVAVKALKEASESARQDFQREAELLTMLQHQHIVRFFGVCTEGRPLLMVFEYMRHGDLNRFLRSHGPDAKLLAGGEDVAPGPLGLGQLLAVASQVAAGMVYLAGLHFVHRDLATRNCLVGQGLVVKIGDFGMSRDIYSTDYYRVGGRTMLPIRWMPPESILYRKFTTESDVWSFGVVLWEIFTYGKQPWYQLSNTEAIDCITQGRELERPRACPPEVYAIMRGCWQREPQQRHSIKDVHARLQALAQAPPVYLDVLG
T4 sequence (Q16620 32-822): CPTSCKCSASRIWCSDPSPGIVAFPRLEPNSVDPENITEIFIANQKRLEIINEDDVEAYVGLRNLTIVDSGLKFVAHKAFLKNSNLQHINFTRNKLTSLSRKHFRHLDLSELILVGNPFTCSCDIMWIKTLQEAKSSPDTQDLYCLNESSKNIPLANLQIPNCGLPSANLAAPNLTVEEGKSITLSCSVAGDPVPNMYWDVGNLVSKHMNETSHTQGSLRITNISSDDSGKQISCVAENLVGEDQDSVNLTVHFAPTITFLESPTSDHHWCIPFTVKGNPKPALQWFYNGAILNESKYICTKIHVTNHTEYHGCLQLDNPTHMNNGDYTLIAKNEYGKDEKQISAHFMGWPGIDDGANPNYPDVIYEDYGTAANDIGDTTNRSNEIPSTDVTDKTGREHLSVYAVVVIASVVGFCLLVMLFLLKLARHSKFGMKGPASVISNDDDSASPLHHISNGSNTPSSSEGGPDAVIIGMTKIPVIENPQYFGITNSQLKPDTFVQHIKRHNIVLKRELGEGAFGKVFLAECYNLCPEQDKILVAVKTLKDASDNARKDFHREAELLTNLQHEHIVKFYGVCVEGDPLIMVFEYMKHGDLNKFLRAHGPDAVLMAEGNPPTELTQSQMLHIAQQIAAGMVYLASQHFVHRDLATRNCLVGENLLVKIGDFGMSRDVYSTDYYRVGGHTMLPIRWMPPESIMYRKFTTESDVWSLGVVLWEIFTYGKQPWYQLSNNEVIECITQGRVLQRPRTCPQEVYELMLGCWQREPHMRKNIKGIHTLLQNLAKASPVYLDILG
T9 sequence (Q8IU85 whole entry): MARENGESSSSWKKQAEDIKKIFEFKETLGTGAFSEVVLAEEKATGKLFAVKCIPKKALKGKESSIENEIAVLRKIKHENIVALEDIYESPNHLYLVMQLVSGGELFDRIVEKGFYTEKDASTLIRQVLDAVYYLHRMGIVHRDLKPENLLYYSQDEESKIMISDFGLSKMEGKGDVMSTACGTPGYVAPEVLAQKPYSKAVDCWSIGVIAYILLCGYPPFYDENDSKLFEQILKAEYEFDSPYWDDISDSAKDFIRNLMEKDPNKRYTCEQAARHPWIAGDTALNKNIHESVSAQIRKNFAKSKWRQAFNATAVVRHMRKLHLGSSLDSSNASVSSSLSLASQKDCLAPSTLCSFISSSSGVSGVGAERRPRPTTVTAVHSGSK
T11 sequence (P19525 whole entry): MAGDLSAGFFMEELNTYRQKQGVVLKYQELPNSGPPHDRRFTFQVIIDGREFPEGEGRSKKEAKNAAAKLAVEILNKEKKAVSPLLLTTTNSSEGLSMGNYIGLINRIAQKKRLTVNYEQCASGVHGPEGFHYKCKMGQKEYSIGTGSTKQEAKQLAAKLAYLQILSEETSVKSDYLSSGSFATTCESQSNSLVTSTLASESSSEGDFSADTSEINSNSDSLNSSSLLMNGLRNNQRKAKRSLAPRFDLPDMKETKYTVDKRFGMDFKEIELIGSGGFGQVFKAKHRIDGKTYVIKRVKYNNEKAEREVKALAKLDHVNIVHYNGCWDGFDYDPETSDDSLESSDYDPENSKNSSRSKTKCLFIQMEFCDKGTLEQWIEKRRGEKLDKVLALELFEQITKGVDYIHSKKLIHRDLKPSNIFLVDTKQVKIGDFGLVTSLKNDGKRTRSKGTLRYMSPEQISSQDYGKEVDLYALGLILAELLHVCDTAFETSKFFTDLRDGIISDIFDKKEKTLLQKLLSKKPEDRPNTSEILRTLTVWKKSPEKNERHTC

As to `C=CC(=O)N1CCC([C@@H]2CCNc3c(C(N)=O)c(-c4ccc(Oc5ccccc5)cc4)nn32)CC1` [zanubrutinib], the “Percentage inhibition of kinase enzyme activity” value (“Percentage inhibition” below) is on record as -1.66% on PKCβ2, 0.95% on NEK4 and 4.53% at FES.

For the molecule `CC#CC(=O)N1CCC[C@H]1c1nc(-c2ccc(C(=O)Nc3ccccn3)cc2)c2c(N)nccn12` [acalabrutinib], the “Percentage inhibition” value was 13.81% on TRKB; -12.04% on PKCβ2; -14.17% at p70S6Kβ; -1.79% on BRSK1; -3.18% at NEK9; -17.45% at DAPK1. Moreover, the “Percentage inhibition” value is recorded as -5.01% at CaMK1δ; -4.76% at NEK4; 5.27% on ALK; 7.19% on PKR; -6.23% at AKT1; 4.21% at RSK4. For the same molecule, the “Percentage inhibition” value on FES is on record as -6.35%; at TRKA, 12.80%.

For the molecule `COc1ccc(F)cc1C(=O)NCc1ccc(-c2nn([C@@H](C)C(F)(F)F)c(N)c2C(N)=O)cc1` [pirtobrutinib], the “Percentage inhibition” value at TRKB was 4.46%; at PKCβ2 it was -8.67%; at p70S6Kβ it was 10.01%; on BRSK1 it was 3.44%; at NEK9 it was -2.20%; on DAPK1, -0.51%. The “Percentage inhibition” value at CaMK1δ is listed as 2.74%; at NEK4, -3.18%; at ALK, 6.67%; at PKR it was 7.39%; at AKT1, -12.80%; at RSK4, -0.12%. Moreover, the “Percentage inhibition” value at FES is given as 11.87%; at TRKA it was 4.28%.

In the case of `O=C(c1ccc(Oc2ccccc2)cc1Cl)c1c[nH]c2ncnc(N[C@@H]3CC[C@@H](CO)OC3)c12` [nemtabrutinib], the “Percentage inhibition” value at TRKB is 101.64%; on PKCβ2, -1.79%; at p70S6Kβ, 4.30%; on BRSK1, 12.83%; at NEK9 it was -0.83%; on DAPK1 it was -7.44%. Further, the “Percentage inhibition” value on CaMK1δ is recorded as 9.32%; at NEK4 it was 7.11%; on ALK it was 50.65%; on PKR, 29.57%; on AKT1, -8.43%; at RSK4, -2.32%. Also, the figures for the “Percentage inhibition” value at FES and on TRKA were 93.26% and 99.52%, respectively.

Turning to `C=CC(=O)N1CCC[C@@H](n2nc(-c3ccc(Oc4ccccc4)cc3)c3c(N)ncnc32)C1` [ibrutinib], the “Percentage inhibition” value on TRKB was 25.78%; at PKCβ2 it was 1.78%; at p70S6Kβ, 0.87%; on BRSK1, -7.32%; at NEK9, -3.28%; on DAPK1, -3.80%. The “Percentage inhibition” value at CaMK1δ is listed as 4.85%; on NEK4, 4.65%; on ALK, 5.45%; at PKR, 5.63%; at AKT1 it was -9.41%; on RSK4, 5.52%. Moreover, the “Percentage inhibition” value on FES is reported as 0.68%; on TRKA, 59.18%.
